Results as given in ChEMBL document CHEMBL3751693, “Synthesis, antimicrobial evaluation and molecular modeling of 5-hydroxyisoquinolinium salt series; the effect of the hydroxyl moiety” (Bioorg Med Chem, 2016).

Assays:
Candida albicans [1] = assay: Antimicrobial activity against Candida albicans ATCC 44859 after 48 hrs by spectrophotometry; type: functional; details: ATCC 44859, 48 h
Staphylococcus aureus [2] = assay: Antimicrobial activity against clinical isolate methicillin-resistant Staphylococcus aureus H 599608 after 24 hrs; type: functional; details: H 599608, 24 h
[3] = tested on: Trichophyton mentagrophytes; assay: Antimicrobial activity against Trichophyton mentagrophytes 445 after 120 hrs by spectrophotometry; type: functional; details: Trichophyton mentagrophytes, 445, 120 h
[4] = tested on: Staphylococcus epidermidis; assay: Antimicrobial activity against clinical isolate Staphylococcus epidermidis H 696608 after 24 hrs; type: functional; details: H 696608, 24 h
Trichosporon asahii [5] = assay: Antimicrobial activity against Trichosporon asahii 1188 after 48 hrs by spectrophotometry; type: functional; details: Trichosporon asahii, 1188, 48 h
Klebsiella pneumoniae [6] = assay: Antimicrobial activity against clinical isolate ESBL-Klebsiella pneumoniae J 1436808 after 48 hrs; type: functional; details: J 1436808, 48 h
Escherichia coli [7] = assay: Antimicrobial activity against clinical isolate Escherichia coli CCM 4517 after 24 hrs; type: functional; details: CCM 4517, 24 h
Staphylococcus aureus [8] = assay: Antimicrobial activity against clinical isolate Staphylococcus aureus CCM 451608 after 24 hrs; type: functional; details: CCM 451608, 24 h
Klebsiella pneumoniae [9] = assay: Antimicrobial activity against clinical isolate ESBL-Klebsiella pneumoniae J 1436808 after 24 hrs; type: functional; details: J 1436808, 24 h
Klebsiella pneumoniae [10] = assay: Antimicrobial activity against clinical isolate Klebsiella pneumoniae D 1175008 after 24 hrs; type: functional; details: D 1175008, 24 h
Pichia kudriavzevii [11] = assay: Antimicrobial activity against Candida krusei E28 after 24 hrs by spectrophotometry; type: functional; details: E28, 24 h
Pseudomonas aeruginosa [12] = assay: Antimicrobial activity against clinical isolate Pseudomonas aeruginosa CCM 1961 after 72 hrs; type: functional; details: CCM 1961, 72 h
Aspergillus fumigatus [13] = assay: Antimicrobial activity against Aspergillus fumigatus 231 after 48 hrs by spectrophotometry; type: functional; details: Aspergillus fumigatus, 231, 48 h
[14] = tested on: Trichophyton mentagrophytes; assay: Antimicrobial activity against Trichophyton mentagrophytes 445 after 72 hrs by spectrophotometry; type: functional; details: Trichophyton mentagrophytes, 445, 72 h
Lichtheimia corymbifera [15] = assay: Antimicrobial activity against Absidia corymbifera 272 after 24 hrs by spectrophotometry; type: functional; details: Lichtheimia corymbifera, 272, 24 h
Candida albicans [16] = assay: Antimicrobial activity against Candida albicans ATCC 44859 after 24 hrs by spectrophotometry; type: functional; details: ATCC 44859, 24 h
Pseudomonas aeruginosa [17] = assay: Antimicrobial activity against clinical isolate Pseudomonas aeruginosa CCM 1961 after 120 hrs; type: functional; details: CCM 1961, 120 h
Enterococcus sp. [18] = assay: Antimicrobial activity against clinical isolate Enterococcus sp. J 1436508 after 48 hrs; type: functional; details: J 1436508, 48 h
[19] = tested on: Staphylococcus epidermidis; assay: Antimicrobial activity against clinical isolate Staphylococcus epidermidis H 696608 after 48 hrs; type: functional; details: H 696608, 48 h
Aspergillus fumigatus [20] = assay: Antimicrobial activity against Aspergillus fumigatus 231 after 24 hrs by spectrophotometry; type: functional; details: Aspergillus fumigatus, 231, 24 h
Escherichia coli [21] = assay: Antimicrobial activity against clinical isolate Escherichia coli CCM 4517 after 48 hrs; type: functional; details: CCM 4517, 48 h
Staphylococcus aureus [22] = assay: Antimicrobial activity against clinical isolate Staphylococcus aureus CCM 451608 after 48 hrs; type: functional; details: CCM 451608, 48 h
Lichtheimia corymbifera [23] = assay: Antimicrobial activity against Absidia corymbifera 272 after 48 hrs by spectrophotometry; type: functional; details: Lichtheimia corymbifera, 272, 48 h
Nakaseomyces glabratus [24] = assay: Antimicrobial activity against Candida glabrata 20/I after 48 hrs by spectrophotometry; type: functional
Klebsiella pneumoniae [25] = assay: Antimicrobial activity against clinical isolate Klebsiella pneumoniae D 1175008 after 48 hrs; type: functional; details: D 1175008, 48 h
Nakaseomyces glabratus [26] = assay: Antimicrobial activity against Candida glabrata 20/I after 24 hrs by spectrophotometry; type: functional
Staphylococcus aureus [27] = assay: Antimicrobial activity against clinical isolate methicillin-resistant Staphylococcus aureus H 599608 after 48 hrs; type: functional; details: H 599608, 48 h
Trichosporon asahii [28] = assay: Antimicrobial activity against Trichosporon asahii 1188 after 24 hrs by spectrophotometry; type: functional; details: Trichosporon asahii, 1188, 24 h
Candida tropicalis [29] = assay: Antimicrobial activity against Candida tropicalis 156 after 48 hrs by spectrophotometry; type: functional; details: Candida tropicalis, 156, 48 h
[30] = Cytotoxicity against CHOK1 cells after 24 hrs by MTT assay; type: cell-based; details: Cricetulus griseus, CHO-K1, 24 h
Enterococcus sp. [31] = assay: Antimicrobial activity against clinical isolate Enterococcus sp. J 1436508 after 24 hrs; type: functional; details: J 1436508, 24 h
Pichia kudriavzevii [32] = assay: Antimicrobial activity against Candida krusei E28 after 48 hrs by spectrophotometry; type: functional; details: E28, 48 h
Candida tropicalis [33] = assay: Antimicrobial activity against Candida tropicalis 156 after 24 hrs by spectrophotometry; type: functional; details: Candida tropicalis, 156, 24 h

CCCCCCCCCCCCCCCCCC[n+]1ccc2ccccc2c1
MFC (Candida albicans [1]): 2 µM
MIC (Candida albicans [1]): 2 µM
MIC (Staphylococcus aureus [2]): 0.5 µM
MFC [3]: 31 µM
MIC [3]: 2 µM
MIC [4]: 0.5 µM
MFC (Trichosporon asahii [5]): 2 µM
MIC (Trichosporon asahii [5]): 2 µM
MBC (Klebsiella pneumoniae [6]): 250 µM
MIC (Klebsiella pneumoniae [6]): 63 µM
MIC (Escherichia coli [7]): 31 µM
MIC (Staphylococcus aureus [8]): 0.5 µM
MIC (Klebsiella pneumoniae [9]): 63 µM
MIC (Klebsiella pneumoniae [10]): 63 µM
MIC (Pichia kudriavzevii [11]): 2 µM
MIC (Pseudomonas aeruginosa [12]): 125 µM
MFC (Aspergillus fumigatus [13]): 63 µM
MIC (Aspergillus fumigatus [13]): 63 µM
MIC [14]: 2 µM
MIC (Lichtheimia corymbifera [15]): 7.8 µM
MIC (Candida albicans [16]): 2 µM
MBC (Pseudomonas aeruginosa [17]): 250 µM
MIC (Pseudomonas aeruginosa [17]): 125 µM
MBC (Enterococcus sp. [18]): 2 µM
MIC (Enterococcus sp. [18]): 2 µM
MBC [19]: 2 µM
MIC [19]: 0.5 µM
MIC (Aspergillus fumigatus [20]): 63 µM
MBC (Escherichia coli [21]): 31 µM
MIC (Escherichia coli [21]): 31 µM
MBC (Staphylococcus aureus [22]): 2 µM
MIC (Staphylococcus aureus [22]): 0.5 µM
MFC (Lichtheimia corymbifera [23]): 63 µM
MIC (Lichtheimia corymbifera [23]): 7.8 µM
MFC (Nakaseomyces glabratus [24]): 2 µM
MIC (Nakaseomyces glabratus [24]): 1 µM
MBC (Klebsiella pneumoniae [25]): 63 µM
MIC (Klebsiella pneumoniae [25]): 63 µM
MIC (Nakaseomyces glabratus [26]): 1 µM
MBC (Staphylococcus aureus [27]): 2 µM
MIC (Staphylococcus aureus [27]): 0.5 µM
MIC (Trichosporon asahii [28]): 2 µM
MFC (Candida tropicalis [29]): 2 µM
MIC (Candida tropicalis [29]): 2 µM
IC50 [30]: 6 µM
MIC (Enterococcus sp. [31]): 2 µM
MFC (Pichia kudriavzevii [32]): 2 µM
MIC (Pichia kudriavzevii [32]): 2 µM
MIC (Candida tropicalis [33]): 2 µM

CCCCCCCCCCCCCCCC[n+]1ccc2c(O)cccc2c1
MFC (Candida albicans [1]): 125 µM
MIC (Candida albicans [1]): 16 µM
MIC (Staphylococcus aureus [2]): 0.5 µM
MFC [3]: 125 µM
MIC [3]: 16 µM
MIC [4]: 63 µM
MFC (Trichosporon asahii [5]): 125 µM
MIC (Trichosporon asahii [5]): 63 µM
MBC (Klebsiella pneumoniae [6]): > 500 µM
MIC (Klebsiella pneumoniae [6]): 500 µM
MIC (Escherichia coli [7]): > 500 µM
MIC (Staphylococcus aureus [8]): 0.5 µM
MIC (Klebsiella pneumoniae [9]): > 500 µM
MIC (Klebsiella pneumoniae [10]): > 500 µM
MIC (Pichia kudriavzevii [11]): 7.8 µM
MIC (Pseudomonas aeruginosa [12]): > 500 µM
MFC (Aspergillus fumigatus [13]): > 500 µM
MIC (Aspergillus fumigatus [13]): > 500 µM
MIC [14]: 16 µM
MIC (Lichtheimia corymbifera [15]): > 500 µM
MIC (Candida albicans [16]): 16 µM
MBC (Pseudomonas aeruginosa [17]): > 500 µM
MIC (Pseudomonas aeruginosa [17]): > 500 µM
MBC (Enterococcus sp. [18]): 63 µM
MIC (Enterococcus sp. [18]): 63 µM
MBC [19]: 63 µM
MIC [19]: 63 µM
MIC (Aspergillus fumigatus [20]): > 500 µM
MBC (Escherichia coli [21]): > 500 µM
MIC (Escherichia coli [21]): > 500 µM
MBC (Staphylococcus aureus [22]): 0.5 µM
MIC (Staphylococcus aureus [22]): 0.5 µM
MFC (Lichtheimia corymbifera [23]): > 500 µM
MIC (Lichtheimia corymbifera [23]): > 500 µM
MFC (Nakaseomyces glabratus [24]): 3.9 µM
MIC (Nakaseomyces glabratus [24]): 3.9 µM
MBC (Klebsiella pneumoniae [25]): > 500 µM
MIC (Klebsiella pneumoniae [25]): > 500 µM
MIC (Nakaseomyces glabratus [26]): 3.9 µM
MBC (Staphylococcus aureus [27]): 0.5 µM
MIC (Staphylococcus aureus [27]): 0.5 µM
MIC (Trichosporon asahii [28]): 63 µM
MFC (Candida tropicalis [29]): 7.8 µM
MIC (Candida tropicalis [29]): 7.8 µM
IC50 [30]: 16 µM
MIC (Enterococcus sp. [31]): 63 µM
MFC (Pichia kudriavzevii [32]): 7.8 µM
MIC (Pichia kudriavzevii [32]): 7.8 µM
MIC (Candida tropicalis [33]): 7.8 µM

CCCCCCCCCCCC[n+]1ccc2c(O)cccc2c1
MFC (Candida albicans [1]): 63 µM
MIC (Candida albicans [1]): 63 µM
MIC (Staphylococcus aureus [2]): 3.9 µM
MFC [3]: 63 µM
MIC [3]: 31 µM
MIC [4]: 3.9 µM
MFC (Trichosporon asahii [5]): 31 µM
MIC (Trichosporon asahii [5]): 31 µM
MBC (Klebsiella pneumoniae [6]): 63 µM
MIC (Klebsiella pneumoniae [6]): 63 µM
MIC (Escherichia coli [7]): 250 µM
MIC (Staphylococcus aureus [8]): 1 µM
MIC (Klebsiella pneumoniae [9]): 63 µM
MIC (Klebsiella pneumoniae [10]): 63 µM
MIC (Pichia kudriavzevii [11]): 7.8 µM
MIC (Pseudomonas aeruginosa [12]): 63 µM
MFC (Aspergillus fumigatus [13]): 250 µM
MIC (Aspergillus fumigatus [13]): 31 µM
MIC [14]: 31 µM
MIC (Lichtheimia corymbifera [15]): 125 µM
MIC (Candida albicans [16]): 63 µM
MBC (Pseudomonas aeruginosa [17]): 63 µM
MIC (Pseudomonas aeruginosa [17]): 63 µM
MBC (Enterococcus sp. [18]): 63 µM
MIC (Enterococcus sp. [18]): 63 µM
MBC [19]: 3.9 µM
MIC [19]: 3.9 µM
MIC (Aspergillus fumigatus [20]): 31 µM
MBC (Escherichia coli [21]): 250 µM
MIC (Escherichia coli [21]): 250 µM
MBC (Staphylococcus aureus [22]): 2 µM
MIC (Staphylococcus aureus [22]): 1 µM
MFC (Lichtheimia corymbifera [23]): 250 µM
MIC (Lichtheimia corymbifera [23]): 125 µM
MFC (Nakaseomyces glabratus [24]): 7.8 µM
MIC (Nakaseomyces glabratus [24]): 3.9 µM
MBC (Klebsiella pneumoniae [25]): 63 µM
MIC (Klebsiella pneumoniae [25]): 63 µM
MIC (Nakaseomyces glabratus [26]): 3.9 µM
MBC (Staphylococcus aureus [27]): 3.9 µM
MIC (Staphylococcus aureus [27]): 3.9 µM
MIC (Trichosporon asahii [28]): 31 µM
MFC (Candida tropicalis [29]): 63 µM
MIC (Candida tropicalis [29]): 31 µM
IC50 [30]: 36 µM
MIC (Enterococcus sp. [31]): 63 µM
MFC (Pichia kudriavzevii [32]): 7.8 µM
MIC (Pichia kudriavzevii [32]): 7.8 µM
MIC (Candida tropicalis [33]): 31 µM
